Measured values: US4988730A, “Diphenkylpropylamines for the therapy of heart disease” (Chinoin Gyogyszer es Vegyeszeti Termekek Gyar RT, priority 1986, dated 1991)
Where two headings read alike, the source gives them in different places.

Columns and labels:
[1] = vasopressin-induced angina, comparison of calcium antagonists (table 2); type: in vivo; conditions: for BP/Antianginal ED50 / ratio (row drawing 12; DP/dt max/antianginal by arithmetic): ratio, table 2
[2] = anti-ischaemic protective action after an oral dose; type: in vivo
[3] = vasopressin angina of rats (acute coronary failure induced by vasopressin); type: in vivo; conditions: for ED50: Rattus norvegicus
Text: Thus, such derivatives forming a more preferred group of the compounds of the formula (I), wherein R^1 is as defined above, R^2 means a methyl group, R^3 is halogen and R^4, R^5 and R^6 stand for hydrogen, show significant antianginal effects. In these derivatives, the halogen may be fluorine, chlorine or bromine. […] Thus, the above compound of the invention is about 42 times as effective as fendiline under the same conditions.
(§1) In the case of the vasopressin angina of rats [Papp and Szekeres: Arch. int. Pharmacodyn. 160, 147 (1966)], the antianginal activity measured at the 2nd minute following the intravenous administration or at the 60th minute after oral administration, respectively, as well as the intravenous and oral acute toxicity values, the therapeutic indices and the quotient of the therapeutic ratio of KHL-8430 to that of fendiline as measured in rats are summarized in Table 1.

[4] = ventricular extrasystoles developing under the effect of a coronary occlusion; type: in vivo; conditions: as opposed to fendiline
[5] = haemodynamic study on dogs during coronary occlusion; type: in vivo; conditions: in comparison with fendiline, verapamil or nifedipine
[6] = antiarrhythmic ("antifibrillatory") action, fibrillation threshold; type: in vivo; conditions: table 2
[7] = acute toxicity in rats (LD50, therapeutic indices); type: in vivo; conditions: for LD50 / selectivity ratio: rat, in vivo; for LD50: acute toxicity; for selectivity ratio: LD50 and ED50 in vasopressin angina
Text: as §1

[8] = system: auricular and ventricular muscle of the isolated cat heart; experiment: antiarrhythmic action in auricular and ventricular muscle of the isolated cat heart
[9] = haemodynamic actions (blood pressure, heart rate, left ventricle contractility); type: in vivo; conditions: i.v.; KHL-8430, verapamil and fendiline
[10] = "two-step" coronary occlusion of Harris, extrasystolic activity in conscious dogs; type: in vivo; conditions: for extrasystolic activity following by 24 hours the two-step coronary occlusion: conscious dogs, KHL-8430 2 mg/kg intravenous
[11] = myocardial ischaemia induced by coronary occlusion in dogs; type: in vivo; conditions: versus fendiline
Text: The myocardial ischaemia induced by coronary occlusion in dogs [Szekeres e al.: J. Pharm.

[12] = 1 h, vasopressin angina, 60th minute after oral administration, read-out: ED50, antianginal activity, oral
[13] = iv, 2 min, vasopressin angina, 2nd minute following i.v. administration, read-out: ED50, antianginal activity, intravenous
[14] = iv, rats, i.v., read-out: LD50, intravenous
[15] = iv, rats, i.v., read-out: therapeutic index, intravenous (head is drawing 4)
[16] = rats, oral, read-out: LD50, oral
[17] = rats, oral, read-out: therapeutic index, oral (head is drawing 5)
[18] = iv, 2 min, i.v. at 2 minutes before inducing the angina by i.v. 2 NE/kg of vasopressin, read-out: ED50, acute coronary failure induced by vasopressin

| Compound | BP/Antianginal ED50 [1] | ratio (row drawing 12; DP/dt max/antianginal by arithmetic) [1] | ED50 [3, 12] [mg/kg] | ED50 [3, 13] [mg/kg] | ratio (row drawing 11; BP/FFT by arithmetic) [6] | ratio (row drawing 13; DP/dt max/FFT by arithmetic) [6] | LD50 [7, 14] [mg/kg] | selectivity ratio [7, 15] | LD50 [7, 16] [mg/kg] | selectivity ratio [7, 17] | extrasystolic activity following by 24 hours the two-step coronary occlusion [10] | ED50 [3, 18] [mg/kg] | other results |
| --- | --- | --- | --- | --- | --- | --- | --- | --- | --- | --- | --- | --- | --- |
| COc1ccc(C(C)NCCC(c2ccccc2)c2ccccc2)cc1OC.Cl (centres unmarked) [KHL-8430, 2-(3,4-Dimethoxyphenyl)-6,6-diphenyl-3-azahexane hydrochloride] | 3.75 | 10.00 | 8.4 | 0.34 | 1.25 | 3.33 | 16 | 47.1 | 1400 | 167 | significantly lowered | – | anti-ischaemic protective action after an oral dose [2]: very smooth; strength and duration of the effect on the angina induced by vasopressin ([3]; versus fendiline): highly exceed that of fendiline; restraint of ventricular extrasystoles under coronary occlusion [4]: surprisingly capable to restrain the ventricular extrasystoles; arterial blood pressure during coronary occlusion [5]: only a little lowered; heart rate during coronary occlusion [5]: not decreased; prolongation of the activation time in the ischaemic area [5]: significantly restrained; Quotient of the therapeutic ratios, intravenous ([7]; rats, i.v., therapeutic ratio of KHL-8430 to that of fendiline): 8.89; Quotient of the therapeutic ratios, oral ([7]; rats, oral, therapeutic ratio of KHL-8430 to that of fendiline): 4.17; toxicity on intravenous and oral administrations ([7]; versus fendiline): less toxic than the reference compound; antiarrhythmic action, auricular and ventricular muscle of the isolated cat heart ([8]; compared with mexiletine): high antiarrhythmic action, which equals the effect of mexiletine; antiarrhythmic action relative to fendiline, verapamil and other calcium antagonists ([8]; isolated cat heart): by far surpassing that of fendiline, verapamil and other calcium antagonists; haemodynamical therapeutic index [9]: by far the best among the three calcium antagonists studied; rhythm disturbances of the heart ([10]; dog, in vivo): in a great part of the cases, the rhythm disturbances of the heart could be suspended; frequency of the extrasystoles, oral administration ([10]; oral administration): diminished in a dose-dependent manner and very significantly; decrease of myocardial ischaemia induced by coronary occlusion ([11]; intravenous or oral): decreased more strongly and with a much longer duration; strength and duration of the effect on the ischaemic state induced by coronary occlusion [11]: highly exceed that of fendiline |
| COc1ccc(CCN(C)CCCC(C#N)(c2ccc(OC)c(OC)c2)C(C)C)cc1OC (centres unmarked) [verapamil] | 2.0 | 0.7 | – | – | 0.13 | 0.04 | – | – | – | – | no significant effect | – | ED50 ([1]; iv, read-out: ED50, Vasopressin-induced angina): 0.1 mg/kg |
| CC(NCCC(c1ccccc1)c1ccccc1)c1ccc(Cl)cc1.Cl (centres unmarked) [2-(4-chlorophenyl)-6,6-diphenyl-3-azahexane hydrochloride] | – | – | – | – | – | – | – | – | – | – | – | 0.054 | times as effective as fendiline ([3]; vasopressin angina, i.v., same conditions): about 42 times |
| CC(NCCC(c1ccccc1)c1ccccc1)c1ccccc1 (stereo not drawn) [Fendiline, N-(3,3-diphenylpropyl)-α-methylbenzylamine, reference compound] | 0.62 | 0.41 | 20 | 2.3 | 0.26 | 0.175 | 12.2 | 5.3 | 800 | 40 | no significant effect | 2.3 | – |
